Laboratory results: ChEMBL document CHEMBL1201862, “PubChem BioAssay data set” (2004)
Activity calls are given as the source filed them. Rule as the data show it, for most assays here: actives have a measured EC50 and inactives only a lower limit.

Columns and labels:
[1] = target: FAD-linked sulfhydryl oxidase ALR (Homo sapiens, UniProt P55789); test: inhibitors of human ALR sulfhydryl oxidase, dose response, biochemical, H2O2 detection, luminescence, cherry-pick (AID 493248)
[2] = target: T1, Heat shock factor protein 1 (Mus musculus, UniProt P38532); test: HSF1 potentiators in luciferase reporter cells, confirmation, cell-based, NIH3T3, luminescence, dose retest (AID 435004); type: functional;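 also: stress induced by proteasome inhibitor MG132 added 30 min after compound; luciferase reporter driven by HSF1 response element in NIH3T3 cells; actives raise luminescence as potentiators of the MG132 stress response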
T1 sequence (P38532 whole entry): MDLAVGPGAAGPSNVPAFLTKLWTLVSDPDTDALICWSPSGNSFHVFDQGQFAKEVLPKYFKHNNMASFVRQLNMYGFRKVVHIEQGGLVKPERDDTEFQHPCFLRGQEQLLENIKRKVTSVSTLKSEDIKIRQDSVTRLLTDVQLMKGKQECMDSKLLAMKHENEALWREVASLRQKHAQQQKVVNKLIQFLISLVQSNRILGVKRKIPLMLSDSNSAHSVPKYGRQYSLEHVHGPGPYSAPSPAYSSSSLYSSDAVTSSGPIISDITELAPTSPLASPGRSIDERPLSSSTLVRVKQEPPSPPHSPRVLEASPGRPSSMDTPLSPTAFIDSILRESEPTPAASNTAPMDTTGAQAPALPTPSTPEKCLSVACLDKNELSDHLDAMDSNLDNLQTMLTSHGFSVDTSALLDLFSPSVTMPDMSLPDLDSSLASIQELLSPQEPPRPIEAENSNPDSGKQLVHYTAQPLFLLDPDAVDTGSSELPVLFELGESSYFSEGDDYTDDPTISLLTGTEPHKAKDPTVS

[3] = target: T2, Replicative DNA helicase DnaB (Mycobacterium tuberculosis, UniProt P9WMR3); test: DnaB intein splicing inhibitors, dose response, biochemical, cell-free fluorescence (AID 449749); type: functional
T2 sequence (P9WMR3 whole entry): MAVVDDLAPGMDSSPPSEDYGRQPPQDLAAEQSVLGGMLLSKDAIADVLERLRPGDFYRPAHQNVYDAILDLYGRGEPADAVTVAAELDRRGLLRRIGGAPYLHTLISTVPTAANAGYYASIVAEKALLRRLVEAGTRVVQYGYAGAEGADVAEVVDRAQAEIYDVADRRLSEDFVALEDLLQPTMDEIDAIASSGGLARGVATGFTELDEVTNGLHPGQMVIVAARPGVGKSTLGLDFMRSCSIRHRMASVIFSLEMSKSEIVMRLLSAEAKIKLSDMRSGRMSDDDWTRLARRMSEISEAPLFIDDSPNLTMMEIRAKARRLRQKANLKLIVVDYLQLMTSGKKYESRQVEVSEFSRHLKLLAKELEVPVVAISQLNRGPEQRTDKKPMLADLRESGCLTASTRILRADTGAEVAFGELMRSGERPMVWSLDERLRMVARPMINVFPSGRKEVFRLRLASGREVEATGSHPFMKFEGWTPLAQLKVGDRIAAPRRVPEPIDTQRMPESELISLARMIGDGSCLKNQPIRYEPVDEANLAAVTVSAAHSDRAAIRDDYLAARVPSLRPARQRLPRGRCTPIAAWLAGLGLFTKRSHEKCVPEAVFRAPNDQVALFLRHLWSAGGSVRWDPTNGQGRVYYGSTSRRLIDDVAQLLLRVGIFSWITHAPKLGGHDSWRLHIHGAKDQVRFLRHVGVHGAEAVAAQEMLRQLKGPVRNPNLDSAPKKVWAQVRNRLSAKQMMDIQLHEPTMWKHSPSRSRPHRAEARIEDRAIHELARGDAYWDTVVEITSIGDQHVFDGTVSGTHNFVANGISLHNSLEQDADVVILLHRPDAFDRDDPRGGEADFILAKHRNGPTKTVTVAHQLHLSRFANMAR

Protein RecA = target: T3, Protein RecA (Mycobacterium tuberculosis, UniProt P9WHJ3); test: Fluorescence Cell-Free Homogeneous Dose Retest to Identify Inhibitors of RecA-Intein Splicing Activity. [Related pubchem assays (depositor defined):AID2097, AID2223, AID489010, AID492950]; type: functional
T3 sequence (P9WHJ3 whole entry): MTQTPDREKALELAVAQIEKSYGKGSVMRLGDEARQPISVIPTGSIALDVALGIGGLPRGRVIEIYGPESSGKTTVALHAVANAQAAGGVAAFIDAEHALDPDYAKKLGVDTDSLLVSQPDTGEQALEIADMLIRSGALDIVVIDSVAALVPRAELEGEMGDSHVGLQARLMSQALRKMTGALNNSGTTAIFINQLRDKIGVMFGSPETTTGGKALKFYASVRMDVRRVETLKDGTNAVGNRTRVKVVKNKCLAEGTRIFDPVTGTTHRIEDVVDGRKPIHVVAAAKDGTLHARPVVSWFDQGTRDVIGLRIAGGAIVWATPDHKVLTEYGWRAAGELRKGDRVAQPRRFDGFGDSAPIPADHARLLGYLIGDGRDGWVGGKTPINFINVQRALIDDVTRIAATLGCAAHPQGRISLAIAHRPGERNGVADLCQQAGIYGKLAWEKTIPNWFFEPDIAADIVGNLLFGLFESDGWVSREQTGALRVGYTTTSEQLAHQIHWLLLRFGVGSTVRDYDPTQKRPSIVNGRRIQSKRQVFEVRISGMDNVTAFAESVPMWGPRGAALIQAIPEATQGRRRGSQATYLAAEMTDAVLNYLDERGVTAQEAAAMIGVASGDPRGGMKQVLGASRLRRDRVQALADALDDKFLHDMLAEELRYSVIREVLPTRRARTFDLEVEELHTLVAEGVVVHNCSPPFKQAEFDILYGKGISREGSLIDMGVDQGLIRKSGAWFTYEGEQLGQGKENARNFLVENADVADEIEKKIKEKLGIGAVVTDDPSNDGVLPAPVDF

[4] = cytotoxicity toward NIH3T3 fibroblasts, dose response, counter-screen, cell-based, ATP luminescence, mouse fibroblasts (AID 2010); type: functional;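 also: cells exposed to compound for about 90 hours before reading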
[5] = inhibitors of intracellular T. cruzi replication, confirmation, NIH3T3 host cells, beta-gal luminescence (AID 2044); type: functional, cell-based;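 also: intracellular parasites grown in NIH/3T3 mouse fibroblasts as host cells; luminescent beta-galactosidase reporter signal from transgenic T. cruzi replicating inside host cells; inhibitors lower the luminescence signal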
H9c2 = test: cells; type: functional, cell-based; conditions: Rattus norvegicus, H9c2, Myocardium
[6] = Shn3 3'UTR reporter inhibitors, dose response, cell-based, Clone20 osteoblasts, firefly luciferase, cherry-picked (AID 624132); type: functional;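 also: firefly luciferase luminescence from reporter carrying the Shn3 3'UTR in osteoblasts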
[7] = target: T4, RNA-binding protein pos-1 (Caenorhabditis elegans, UniProt G5EF15); test: inhibitors of POS-1/mex-3 RNA binding, dose response, biochemical, fluorescence polarization (AID 1964);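 also: purified POS-1 fused to maltose binding protein made in E. coli; potency of compounds blocking POS-1 binding to fluorescent RNA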
T4 sequence (G5EF15 whole entry): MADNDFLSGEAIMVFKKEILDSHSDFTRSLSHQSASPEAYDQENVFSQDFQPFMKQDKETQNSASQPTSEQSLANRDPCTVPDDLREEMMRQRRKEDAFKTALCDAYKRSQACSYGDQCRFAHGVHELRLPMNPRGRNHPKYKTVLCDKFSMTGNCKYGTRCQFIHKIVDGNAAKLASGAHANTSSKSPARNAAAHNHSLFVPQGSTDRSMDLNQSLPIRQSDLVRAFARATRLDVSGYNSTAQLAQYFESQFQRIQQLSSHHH

[8] = target: T5, Zinc finger protein mex-5 (Caenorhabditis elegans, UniProt Q9XUB2); test: MEX-5/TCR-2 RNA interaction inhibitors, dose response, biochemical, C. elegans, fluorescence polarization (AID 1960)
T5 sequence (Q9XUB2 whole entry): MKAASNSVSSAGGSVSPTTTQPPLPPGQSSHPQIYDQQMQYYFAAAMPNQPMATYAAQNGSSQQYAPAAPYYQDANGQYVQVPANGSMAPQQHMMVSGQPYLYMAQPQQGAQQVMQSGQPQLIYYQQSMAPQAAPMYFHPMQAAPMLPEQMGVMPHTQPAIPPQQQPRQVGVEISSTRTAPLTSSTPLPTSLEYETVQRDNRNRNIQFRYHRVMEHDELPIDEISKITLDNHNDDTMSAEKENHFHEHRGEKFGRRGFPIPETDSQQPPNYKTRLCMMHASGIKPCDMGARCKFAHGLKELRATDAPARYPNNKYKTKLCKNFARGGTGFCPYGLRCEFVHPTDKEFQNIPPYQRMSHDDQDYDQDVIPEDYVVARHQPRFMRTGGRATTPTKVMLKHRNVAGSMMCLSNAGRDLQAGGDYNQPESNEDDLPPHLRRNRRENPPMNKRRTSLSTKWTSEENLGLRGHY
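For IC50 in this document: confirmatory concentration-response retest of ultra-high-throughput screening hits for modulation of myocardial damage; cell death induced by hydrogen peroxide oxidative stress; compound pretreatment for 60 min then peroxide exposure for 2 h; potency is for protecting the cells against peroxide damage rather than for killing them.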

FAD-linked sulfhydryl oxidase ALR, sequence (P55789 whole entry): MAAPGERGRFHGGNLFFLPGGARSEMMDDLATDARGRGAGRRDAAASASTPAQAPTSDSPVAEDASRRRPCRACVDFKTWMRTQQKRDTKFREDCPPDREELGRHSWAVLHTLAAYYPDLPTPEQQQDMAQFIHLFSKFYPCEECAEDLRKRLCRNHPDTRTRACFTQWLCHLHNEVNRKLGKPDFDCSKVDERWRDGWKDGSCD

## Cc1ccccc1NS(=O)(=O)c1cccc2nonc12
[1]
  AC50: 8.51 µM (active)

## COc1cc(NC(=O)COC(=O)c2ccc(C)c(S(=O)(=O)N3CCCCC3)c2)c(C)cc1[N+](=O)[O-]
[2]
  EC50: > 260 µM (inactive)

## CCOC(=O)c1nnc(-c2cccs2)nc1Oc1ccc(Cl)cc1
[3]
  AC50: 24.5 µM (active)
Protein RecA
  EC50: 16.5 µM (active)

## Cn1c(S)nnc1CCNC(=O)c1ccc(Cl)cc1
[1]
  AC50: 1.54 µM (active)

## Cc1cccc(N2CCN(c3cccc(C)c3)C2c2cccnc2)c1
[2]
  EC50: > 260 µM (inactive)
[4]
  EC50: 4.39 µM (active)
[5]
  EC50: 0.165 µM (active)

## O=C(Nc1ccccc1)C1Cc2ccccc2CN1C(=O)c1ccco1 (stereo unspecified)
[1]
  AC50: 12.9 µM (active)

## NC(=O)c1nn(-c2ccccc2)nc1NC(=O)CN1CCCCC1
[2]
  EC50: > 260 µM (inactive)

## Cc1ccc(S(=O)(=O)NCC2CCC(C(=O)NCCCN3CCOCC3)CC2)cc1 (stereo unspecified)
[3]
  AC50: > 380 µM (inactive)
Protein RecA
  EC50: > 380 µM (inactive)

## Cc1ccc(C(=O)C(OC(=O)CN2C(=O)c3ccccc3C2=O)c2ccccc2)cc1C (stereo unspecified)
[3]
  AC50: 66.8 µM (active)
Protein RecA
  EC50: > 380 µM (inactive)

## O=C(O)CN1C(=O)/C(=C\c2cccc(OC(=O)c3ccco3)c2)SC1=S
[3]
  AC50: 29.5 µM (active)
Protein RecA
  EC50: 22.6 µM (active)

## CCOC(=O)C1CCN(c2cc3c(cc2NC(=O)c2ccccc2Br)n(C)c(=O)n3C)CC1
H9c2
  IC50: 67.2 µM (inactive)
[6]
  AC50: 21.3 µM (active)

## CCCCCCOc1ccc(C(=O)n2cnc(N)n2)cc1
[3]
  AC50: 21.6 µM (active)
Protein RecA
  EC50: 1.46 µM (active)

## CN1CCC(=NNc2ccc(S(=O)(=O)N3CCOCC3)cc2[N+](=O)[O-])CC1
[2]
  EC50: > 260 µM (inactive)

## O=C(CCl)Nc1cccc(CP(=O)(c2ccccc2)c2ccccc2)c1
[3]
  AC50: 93.2 µM (active)
Protein RecA
  EC50: 18.4 µM (active)

## Cc1nonc1OCCNCCNc1ccc([N+](=O)[O-])cc1Cl
[2]
  EC50: > 260 µM (inactive)

## COc1ccc(-c2[nH]nc3c2C(c2ccsc2)C(C#N)=C(N)O3)cc1 (stereo unspecified)
[3]
  AC50: 19.2 µM (active)
Protein RecA
  EC50: 13.3 µM (active)

## O=C1N=C(c2ccccc2)C(c2ccccc2)N1 (stereo unspecified)
[1]
  AC50: 0.318 µM (active)

## O=C(O)CCc1ccc(-c2cccs2)n1NC(=O)c1ccccc1Br
[1]
  AC50: 6.95 µM (active)

## Cc1ccc(-c2nnn[nH]2)cc1
[2]
  EC50: > 260 µM (inactive)

## O=C(NCC1CCCO1)c1nn2c(C(F)(F)F)cc(-c3cc(Br)cs3)nc2c1Br (stereo unspecified)
[7]
  EC50: > 300 µM (not active)
[2]
  EC50: > 260 µM (inactive)
[8]
  EC50: > 300 µM (inconclusive)

## Cc1ccc(Nc2nc(CSc3nnnn3C)cs2)cc1
[1]
  AC50: 1.54 µM (active)

## COc1ccc(CC(=O)N2CCN=C2SCc2ccc([N+](=O)[O-])cc2)cc1
[1]
  AC50: < 0.005 µM (active)

## O=C(Nc1cccn(Cc2c(Cl)cccc2Cl)c1=O)c1ccccc1Cl
[2]
  EC50: > 260 µM (inactive)

## CC(Sc1nc(-c2ccccc2)cc(C(F)(F)F)n1)C(=O)Nc1sc2c(c1C#N)CCC2 (stereo unspecified)
[2]
  EC50: > 260 µM (inactive)
[4]
  EC50: > 60 µM (not active)
[5]
  EC50: 0.137 µM (active)

## CN(C)CCNC(=O)C(=O)NCC(c1ccc2c(c1)OCO2)N1CCN(c2ccc(F)cc2)CC1 (stereo unspecified)
[1]
  AC50: 0.439 µM (active)

## C=CC[C@H](CC(=O)N(CCO)Cc1ccccc1)C(=O)NC[C@H](OC(=O)[C@@H](CC=C)Cc1ccc(F)cc1)c1ccccc1
[6]
  AC50: 10.7 µM (active)

## N#Cc1ccc(OCCN2CCc3ccccc3C2)cc1
[2]
  EC50: > 260 µM (inactive)

## Cc1ccc(CC2SC(N=C(N)N)=NC2=O)cc1 (stereo unspecified)
[2]
  EC50: > 260 µM (inactive)

## CCN(CC)S(=O)(=O)c1cccc(C(=O)N/N=C/c2cc(OC)c(O)c(OC)c2)c1
[1]
  AC50: 0.21 µM (active)

## Cc1cc(OC(=O)c2ccccc2)n(CCC#N)n1
[3]
  AC50: 8.7 µM (active)
Protein RecA
  EC50: 2.67 µM (active)

## Cc1onc(-c2c(Cl)cccc2Cl)c1C(=O)N[C@@H]1C(=O)N2[C@@H]1SC(C)(C)[C@@H]2C(=O)O [DICLOXACILLIN SODIUM]
[6]
  AC50: 46.7 µM (active)
